We go through 13 compounds from ChEMBL document CHEMBL5241105, “Natural Products with Potential for Nonhormonal Male Contraception” (J Nat Prod, 2021).

For data set [1], the species on record is Rattus norvegicus. The experiment in a line: Antifertility in male rat assessed as reduction in fertility relative to control. Also on record: scale not given: the % may be the effect or the level left. It counts as functional.
The next data set is filed under the species Homo sapiens. Put plainly: Inhibition of calcium channel (unknown origin) at 2 mg/ml relative to control.
The subject of the next data set is Meriones unguiculatus. Put plainly: Antifertility activity in gerbils assessed as inhibition of spermatid production at 25 mg/kg, po (reference value: 51.2 %). The format is functional. Also on record: scale not given: the % may be the effect or the level left.
For a further data set, the system named is Oryctolagus cuniculus. Put plainly: Antifertility activity in rabbit assessed as inhibition of spermatid production at 25 mg/kg, po (reference value: 33.9 %). It counts as functional. Set-up: scale not given: the % may be the effect or the level left.
The nature of data set [2]: Toxicity in oral dosed rat assessed as median lethal dose. It counts as organism-based. Conditions: in vivo.
The species entered for data set [3] is Rattus norvegicus. The experiment in a line: Antifertility activity in Sprague-Dawley rat assessed as reduction in cauda epididymal sperm count (reference value: 41.5 +/- 19.3 10^6/ml). It counts as functional.
The species named for data set [4] is Rattus norvegicus. The experiment in a line: Antifertility activity in Sprague-Dawley rat assessed as motile sperm percentage (reference value: 85.7 +/- 16.9%). The format is functional.
Data set [5] is filed under the species Rattus norvegicus. Put plainly: Antifertility activity in Sprague-Dawley rat assessed as sperm with normal morphology (reference value: 77.2 +/- 16.9%). It counts as functional.
For data set [6], the species on record is Rattus norvegicus. The experiment in a line: Antifertility activity in albino rat assessed as inhibition of motility (reference value: 30.75 %). It counts as functional. Also on record: scale not given: the % may be the effect or the level left.
For data set [7], the system named is Rattus norvegicus. Put plainly: Antifertility activity in rat assessed as decrease in fertility at 10 mg/kg administered daily relative to control. The format is functional. Also on record: scale not given: the % may be the effect or the level left.
Data set [8] is filed under the species Mus musculus. The experiment in a line: Antifertility activity in mouse assessed as reduction in testicular weight relative to control. Also on record: scale not given: the % may be the effect or the level left. The format is functional.
For a further data set, the system named is Hamster. Put plainly: Antifertility activity in hamster assessed as decrease in egg fertilization percentage at 0.70 to 1.05 mM (reference value: 93.6 +/- 3.12 %). It counts as functional, Cricetinae. Also on record: scale not given: the % may be the effect or the level left. As to conditions: dose 0.7-1.05 mM; at 0.7 to 1.05 mM.
In data set [9] the test system is Rattus norvegicus. The experiment in a line: Antifertility activity in male albino rat assessed as reduction in number of spermatids at 15 mg/kg administered daily relative to control. It counts as functional. Set-up: scale not given: the % may be the effect or the level left.
The test system of data set [10] is Rattus norvegicus. Put plainly: Antifertility activity in male albino rat assessed as reduction in sertoli cells at 15 mg/kg administered daily relative to control. Set-up: scale not given: the % may be the effect or the level left. It counts as functional.
For data set [11], the system named is Rattus norvegicus. Put plainly: Antifertility activity in male albino rat assessed as reduction in spermatids at 15 mg/kg administered daily relative to control. Set-up: scale not given: the % may be the effect or the level left. It counts as functional.
In data set [12] the test system is Rattus norvegicus. The experiment in a line: Antifertility activity in male Sprague-Dawley rat assessed as infertility at 100 microg/kg/day measured for 63 to 70 days relative to control. It counts as functional. As to conditions: dose 100 µg/kg/day; time 63-70 day.
Data set [13] in a line: Toxicity in rat assessed as median lethal dose. As to conditions: in vivo.
Data set [14] is described as follows: Toxicity in mouse assessed as median lethal dose. Conditions: in vivo.
For data set [15], the species on record is Mus musculus. The experiment in a line: Antifertility against male C57BL/6J mouse assessed as infertility. It counts as functional, organism-based.
Data set [16] relates to Mus musculus. The experiment in a line: Antifertility activity in C57BL/6J male mouse assessed as head bend back deformation at 0.8 mg/kg administered via oral gavage for 4 weeks relative to control. It counts as functional.
Data set [17] has as its system Mus musculus. The experiment in a line: Antifertility activity in C57BL/6J male mouse assessed as reduction in forward sperm motility at 0.8 mg/kg administered via oral gavage for 4 weeks relative to control. Also on record: scale not given: the % may be the effect or the level left. It counts as functional.

In the case of `CC1(C)C[C@H]2C3=CC[C@@H]4[C@@]5(C)CC[C@H](O[C@@H]6O[C@H](CO[C@@H]7OC[C@@H](O)[C@H](O)[C@H]7O[C@@H]7OC[C@@H](O)[C@H](O)[C@H]7O)[C@@H](O)[C@H](O)[C@H]6O)C(C)(C)[C@@H]5CC[C@@]4(C)[C@]3(C)C[C@@H](O)[C@@]23C[C@@H]1OC3=O`, the Activity in the data set filed under Rattus norvegicus [1] is 100%.
For the compound `CC1(C)C[C@H]2C3=CC[C@@H]4[C@@]5(C)CC[C@H](O[C@@H]6O[C@H](CO[C@@H]7OC[C@@H](O)[C@H](O)[C@H]7O[C@@H]7O[C@H](CO)[C@@H](O)[C@H](O)[C@H]7O)[C@@H](O)[C@H](O)[C@H]6O)C(C)(C)[C@@H]5CC[C@@]4(C)[C@]3(C)C[C@@H](O)[C@@]23C[C@@H]1OC3=O`, the Activity in the data set listed under Rattus norvegicus [1] is given as 100%.
In the case of `CC1(C)C[C@H]2C3=CC[C@@H]4[C@@]5(C)CC[C@H](O[C@@H]6O[C@H](CO[C@@H]7OC[C@@H](O)[C@H](O)[C@H]7O[C@@H]7O[C@H](CO)[C@@H](O)[C@H](O)[C@H]7O)[C@@H](O)[C@H](O)[C@H]6O[C@@H]6O[C@H](CO)[C@@H](O)[C@H](O)[C@H]6O)C(C)(C)[C@@H]5CC[C@@]4(C)[C@]3(C)C[C@@H](O)[C@@]23C[C@@H]1OC3=O`, in the data set filed under Rattus norvegicus [1], the Activity worked out at 100%.
What is called inhibition is the drop in the measured response relative to a control, in per cent. Turning to `Oc1cc(O)c2c(c1)O[C@H](c1ccc(O)c(O)c1)[C@H](O)C2`, in the data set filed under Homo sapiens, the inhibition turned out to be 53%.
Regarding `C[C@@H]1C[C@H](O)[C@]2(O)O[C@@H]3C[C@@]4(C=O)[C@@H](CC[C@@H]5[C@@H]4CC[C@]4(C)[C@@H](C6=CC(=O)OC6)CC[C@]54O)C[C@H]3O[C@@H]2O1` [CALOTROPIN], the Activity in the data set on Meriones unguiculatus was determined as 65.2%; in the data set with Oryctolagus cuniculus, 94%.
Broadly, the LD50 is the dose at which mortality reaches 50%. With `C=C1CC/C=C(/C)CC[C@@H]2[C@@H]1CC2(C)C` [CARYOPHYLLENE], the LD50 in data set [2] was greater than 5000 mg/kg. Further, the results for the Activity in the data set filed under Rattus norvegicus [3], in the data set listed under Rattus norvegicus [4] and in the data set listed under Rattus norvegicus [5] were 20.8 10^6/ml, 57.4% and 36.2%, respectively.
In the case of `CCCCCCCCCCCC1=C(O)C(=O)C=C(O)C1=O` [EMBELIN], the Activity in the data set listed under Rattus norvegicus [6] was 9.5%.
Take `C=C(C)[C@@H]1CC[C@]2(C)CC[C@]3(C)[C@H](CC[C@@H]4[C@@]5(C)CC[C@H](O)C(C)(C)[C@@H]5CC[C@]43C)[C@@H]12` [LUPEOL]: in the data set on Rattus norvegicus [7], the Activity turned out to be 100%.
Take `CC1(C)CC[C@]2(C(=O)O)CC[C@]3(C)C(=CC[C@@H]4[C@@]5(C)CC[C@H](O)C(C)(C)[C@@H]5CC[C@]43C)[C@@H]2C1` [OLEANOLIC_ACID]: in the data set filed under Mus musculus [8], the Activity amounted to 60%.
With `O=C(/C=C/C=C/c1ccc2c(c1)OCO2)N1CCCCC1` [PIPERINE], in the data set on Hamster, the Activity is on record as 3.89%.
Turning to `COC(=O)C1=CO[C@@H](O[C@@H]2O[C@H](CO)[C@@H](O)[C@H](O)[C@H]2O)[C@H]2[C@@H]1C=C[C@@]21C=C([C@H](C)O)C(=O)O1` [PLUMIERIDE], the results for the Activity with Rattus norvegicus [9], in the data set with Rattus norvegicus [10] and in the data set with Rattus norvegicus [11] were 87%, 29% and 59%, respectively.
Turning to `CC(C)[C@]12O[C@H]1[C@@H]1O[C@]13[C@]1(O[C@H]1C[C@H]1C4=C(CC[C@@]13C)C(=O)OC4)[C@@H]2O` [TRIPTOLIDE], the Activity in the data set on Rattus norvegicus [12] is 100%.
As to `CC(C)[C@]12O[C@H]1[C@@H]1O[C@@]13[C@@]1(C)CCC4=C(COC4=O)[C@@H]1C[C@@H]1O[C@@]13C2=O` [TRIPTONIDE], the results for the LD50 in data set [13] and in data set [14] were 980 mg/kg and 300 mg/kg, respectively. The EC50 in the data set filed under Mus musculus [15] is 0.9 mg/kg. For the same compound, the Activity in the data set on Mus musculus [16] and with Mus musculus [17] was 100% in each case.
